# Experimental data taken from PubChem BioAssay AID192 (DTP/NCI, 2004).
# “And” between values parts separate entries of the source, which are not always exact repeats. Equal entries are not always repeated. Inconclusive results and toxic doses are left out.
# Tested on: BDF1 mice, B16 melanoma ip, median survival T/C
# Assay: NCI In Vivo Anticancer Drug Screen. Data for tumor model B16 Melanoma (intraperitoneal) in B6D2F1 (BDF1) mice
# Details: endpoint: median survival time, higher = longer survival
# Method in brief: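 Mice with transplantable tumors; drug vs vehicle groups; endpoint survival or tumor size; value = T/C.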
# [1] = dose: 3.12 mg/kg/injection, schedule: Q01DX009 (ip), vehicle: Klucel (hydroxypropylcellulose) (HPC)
# [2] = dose: 6.25 mg/kg/injection, schedule: Q01DX009 (ip), vehicle: Klucel (hydroxypropylcellulose) (HPC)
# [3] = dose: 12.5 mg/kg/injection, schedule: Q01DX009 (ip), vehicle: saline with Tween-80
# [4] = dose: 25.0 mg/kg/injection, schedule: Q01DX009 (ip), vehicle: saline with Tween-80
# [5] = dose: 50.0 mg/kg/injection, schedule: Q01DX009 (ip), vehicle: saline with Tween-80
# [6] = dose: 10.0 mg/kg/injection, schedule: Q01DX009 (ip), vehicle: saline with Tween-80
# [7] = dose: 20.0 mg/kg/injection, schedule: Q01DX009 (ip), vehicle: saline with Tween-80
# [8] = dose: 100.0 mg/kg/injection, schedule: Q01DX009 (ip), vehicle: saline with Tween-80
# [9] = dose: 200.0 mg/kg/injection, schedule: Q01DX009 (ip), vehicle: saline with Tween-80
# [10] = dose: 1.0 mg/kg/injection, schedule: Q01DX009 (ip), vehicle: saline
# [11] = dose: 2.0 mg/kg/injection, schedule: Q01DX009 (ip), vehicle: saline
# [12] = dose: 4.0 mg/kg/injection, schedule: Q01DX009 (ip), vehicle: saline
# [13] = dose: 65.0 mg/kg/injection, schedule: Q01DX009 (ip), vehicle: saline
# [14] = dose: 100.0 mg/kg/injection, schedule: Q01DX009 (ip), vehicle: saline
# [15] = dose: 200.0 mg/kg/injection, schedule: Q01DX009 (ip), vehicle: saline
# [16] = dose: 400.0 mg/kg/injection, schedule: Q01DX009 (ip), vehicle: saline
# [17] = dose: 100.0 mg/kg/injection, schedule: Q01DX009 (ip), vehicle: Klucel (hydroxypropylcellulose) (HPC)
# [18] = dose: 200.0 mg/kg/injection, schedule: Q01DX009 (ip), vehicle: Klucel (hydroxypropylcellulose) (HPC)
# [19] = dose: 400.0 mg/kg/injection, schedule: Q01DX009 (ip), vehicle: Klucel (hydroxypropylcellulose) (HPC)
# [20] = dose: 25.0 mg/kg/injection, schedule: Q01DX009 (ip), vehicle: saline
structure (smiles),measurement,setting,value
[CH3][Hg][O]C(C)=O,T/C,[1],94 % of control
same,T/C,[2],86 % of control
O=[N+]([O-])c1ccc(Cl)c2c([N+](=O)[O-])cccc12,T/C,[3],100 % of control
same,T/C,[4],91 % of control
same,T/C,[5],93 % of control and 94 % of control
Cc1cc(C)c(CCl)cc1CCl,T/C,[6],110 % of control
same,T/C,[7],95 % of control
same,T/C,"dose: 20.0 mg/kg/injection, schedule: Q04DX003 (ip), vehicle: saline with Tween-80",100 % of control
same,T/C,"dose: 40.0 mg/kg/injection, schedule: Q01DX009 (ip), vehicle: saline with Tween-80",102 % of control
same,T/C,"dose: 40.0 mg/kg/injection, schedule: Q04DX003 (ip), vehicle: saline with Tween-80",100 % of control
CCCN(CCC)CCCCCCO,T/C,[5],102 % of control
same,T/C,[8],102 % of control
same,T/C,[9],99 % of control
COC1=C(OC)C(=O)C(C/C=C(\C)CC/C=C(\C)CC/C=C(\C)CC/C=C(\C)CC/C=C(\C)CC/C=C(\C)CC/C=C(\C)CC/C=C(\C)CCC=C(C)C)=C(C)C1=O,T/C,"dose: 10.0 mg/kg/injection, schedule: Q01DX025 (ip), vehicle: saline with Tween-80",81 % of control
same,T/C,"dose: 20.0 mg/kg/injection, schedule: Q01DX025 (ip), vehicle: saline with Tween-80",102 % of control
same,T/C,"dose: 40.0 mg/kg/injection, schedule: Q01DX025 (ip), vehicle: saline with Tween-80",100 % of control
CC[C@](O)(C(=O)O)c1cc2n(c(=O)c1CO)Cc1cc3ccccc3nc1-2,T/C,"dose: 0.79 mg/kg/injection, schedule: Q01DX009 (ip), vehicle: other",117 % of control
same,T/C,[10],115 % of control and 121 % of control
same,T/C,[11],117 % of control
same,T/C,[12],150 % of control
COc1cc(/C=C2/c3cc(Cl)ccc3-c3c(Cl)cc(Cl)cc32)cc(OC)c1OC,T/C,"dose: 0.2 mg/kg/injection, schedule: Q01DX009 (ip), vehicle: saline with Tween-80",86 % of control
same,T/C,"dose: 0.4 mg/kg/injection, schedule: Q01DX009 (ip), vehicle: saline with Tween-80",86 % of control
same,T/C,"dose: 0.8 mg/kg/injection, schedule: Q01DX009 (ip), vehicle: saline with Tween-80",86 % of control
O=C1C=CC(=O)N1Cc1ccco1,T/C,[13],108 % of control
same,T/C,[14],103 % of control and 117 % of control
same,T/C,"dose: 150.0 mg/kg/injection, schedule: Q01DX009 (ip), vehicle: saline",114 % of control and 117 % of control
same,T/C,[15],113 % of control
same,T/C,[16],113 % of control
NC(CCCCNC(=O)c1ccccc1)C(=O)O (centres undefined),T/C,[5],100 % of control
same,T/C,[8],100 % of control
same,T/C,[9],92 % of control
same,T/C,"dose: 400.0 mg/kg/injection, schedule: Q01DX009 (ip), vehicle: saline with Tween-80",95 % of control
C(/C=C/c1ccccc1)=Nc1ccc2c(c1)Cc1ccccc1-2,T/C,[17],96 % of control
same,T/C,[18],90 % of control
same,T/C,[19],87 % of control
CCOc1cc(N2CCOCC2)c(OCC)cc1N,T/C,"dose: 6.25 mg/kg/injection, schedule: Q01DX009 (ip), vehicle: saline",95 % of control
same,T/C,"dose: 12.5 mg/kg/injection, schedule: Q01DX009 (ip), vehicle: saline",102 % of control
same,T/C,[20],100 % of control
COC(=O)/C=C/c1ccc(OC)cc1,T/C,[17],97 % of control
same,T/C,[18],97 % of control
same,T/C,"dose: 200.0 mg/kg/injection, schedule: Q04DX003 (ip), vehicle: Klucel (hydroxypropylcellulose) (HPC)",86 % of control
same,T/C,[19],97 % of control
same,T/C,"dose: 400.0 mg/kg/injection, schedule: Q04DX003 (ip), vehicle: Klucel (hydroxypropylcellulose) (HPC)",100 % of control
O=NN(CCCl)C(=O)NCC1CCC(CNC(=O)N(CCCl)N=O)CC1 (centres undefined),T/C,"dose: 17.0 mg/kg/injection, schedule: Q01DX009 (ip), vehicle: saline",122 % of control
same,T/C,"dose: 33.0 mg/kg/injection, schedule: Q01DX009 (ip), vehicle: saline",152 % of control
same,T/C,[13],184 % of control
same,T/C,"dose: 130.0 mg/kg/injection, schedule: Q01DX009 (ip), vehicle: saline",193 % of control
Nc1ncc(CNc2ccc(C(=O)NC(CCC(=O)O)C(=O)O)cc2)c(N)n1 (centres undefined),T/C,[1],107 % of control
same,T/C,[2],103 % of control
same,T/C,"dose: 12.5 mg/kg/injection, schedule: Q01DX009 (ip), vehicle: Klucel (hydroxypropylcellulose) (HPC)",111 % of control
same,T/C,"dose: 25.0 mg/kg/injection, schedule: Q01DX009 (ip), vehicle: Klucel (hydroxypropylcellulose) (HPC)",114 % of control
same,T/C,"dose: 50.0 mg/kg/injection, schedule: Q01DX009 (ip), vehicle: Klucel (hydroxypropylcellulose) (HPC)",108 % of control
COc1cccc(/C=C/[N+](=O)[O-])c1,T/C,"dose: 5.0 mg/kg/injection, schedule: Q01DX009 (ip), vehicle: saline with Tween-80",98 % of control
same,T/C,[6],101 % of control
same,T/C,[7],94 % of control and 98 % of control
CCCCCCCCCC(=O)OC(C)C(=O)N(CCCC)CCCC (centres undefined),T/C,[4],98 % of control
same,T/C,[5],97 % of control
same,T/C,[8],88 % of control
C=CCc1ccc(C)c(C)c1O,T/C,"dose: 100.0 mg/kg/injection, schedule: Q04DX003 (sc), vehicle: olive oil, sesame oil, peanut oil",91 % of control
CC(=O)N(C)C(C(=O)N1CC(C)CC1C(=O)N(C)C1C(=O)NC(CC(C)C)C(=O)N2CC(C)CC2C(=O)NC(CC(C)C)C(=O)N(C)C(C(C)C)C(=O)N2CCCC2C(=O)N(C)C(CC(C)C)C(=O)NCC(=O)OC1C)C(C)C (centres undefined),T/C,"dose: 18.75 mg/kg/injection, schedule: Q01DX009 (ip), vehicle: Klucel (hydroxypropylcellulose) (HPC)",94 % of control
same,T/C,"dose: 37.5 mg/kg/injection, schedule: Q01DX009 (ip), vehicle: Klucel (hydroxypropylcellulose) (HPC)",97 % of control
same,T/C,"dose: 75.0 mg/kg/injection, schedule: Q01DX009 (ip), vehicle: Klucel (hydroxypropylcellulose) (HPC)",94 % of control
NC(c1ccccc1)C(N)c1ccccc1 (centres undefined),T/C,"dose: 25.0 mg/kg/injection, schedule: Q04DX003 (ip), vehicle: other",97 % of control
same,T/C,"dose: 50.0 mg/kg/injection, schedule: Q04DX003 (ip), vehicle: other",97 % of control
same,T/C,"dose: 100.0 mg/kg/injection, schedule: Q04DX003 (ip), vehicle: other",86 % of control
CCC(C)(O)CCc1ccccc1 (centres undefined),T/C,[17],113 % of control
same,T/C,[18],113 % of control
same,T/C,[19],100 % of control
COc1cc([C@@H]2c3cc4c(cc3[C@@H](OC3OC5CO[C@@H](c6cccs6)OC5C(O)C3O)[C@H]3COC(=O)[C@H]23)OCO4)cc(OC)c1O (some centres undefined),T/C,"dose: 0.25 mg/kg/injection, schedule: Q01DX009 (ip), vehicle: clinical formulation",183 % of control
same,T/C,"dose: 0.25 mg/kg/injection, schedule: Q01DX009 (ip), vehicle: saline",171 % of control
same,T/C,"dose: 0.5 mg/kg/injection, schedule: Q01DX009 (ip), vehicle: clinical formulation",223 % of control
same,T/C,"dose: 0.5 mg/kg/injection, schedule: Q01DX009 (ip), vehicle: saline",166 % of control and 214 % of control
same,T/C,"dose: 0.5 mg/kg/injection, schedule: Q01DX009 (ip), vehicle: water",173 % of control
same,T/C,"dose: 1.0 mg/kg/injection, schedule: Q01DX009 (ip), vehicle: clinical formulation",269 % of control
same,T/C,[10],185 % of control and 254 % of control
same,T/C,"dose: 1.0 mg/kg/injection, schedule: Q01DX009 (ip), vehicle: water",178 % of control
same,T/C,"dose: 2.0 mg/kg/injection, schedule: Q01DX009 (ip), vehicle: clinical formulation",285 % of control
same,T/C,[11],204 % of control and 285 % of control
same,T/C,"dose: 2.0 mg/kg/injection, schedule: Q01DX009 (ip), vehicle: water",204 % of control
same,T/C,[12],257 % of control
CCCCn1cnc2c(=S)nc[nH]c21,T/C,"dose: 6.25 mg/kg/injection, schedule: Q01DX009 (ip), vehicle: saline with Tween-80",93 % of control
same,T/C,[3],89 % of control
same,T/C,[4],95 % of control
same,T/C,[5],97 % of control
N[C@@H](Cc1ccc(O)c(O)c1)C(=O)O,T/C,[20],109 % of control
same,T/C,"dose: 50.0 mg/kg/injection, schedule: Q01DX009 (ip), vehicle: saline",98 % of control and 100 % of control
same,T/C,[14],102 % of control and 104 % of control
same,T/C,[15],102 % of control and 108 % of control
same,T/C,[16],97 % of control and 104 % of control
